Measured values reported in patent US20220332701A1, “HETEROCYCLIC COMPOUNDS AS BCR-ABL INHIBITORS” (ASCENTAGE PHARMA (SUZHOU) CO., LTD., priority 2019, published 2022).
One block for each molecule: values may come before it.

Key:
BaF3(WT) = BaF3(WT) (Homo sapiens, UniProt P00519); assay: WST (CCK-8) anti-proliferation assay, BaF3 WT cells; conditions: read-out: BaF3(WT); anti-proliferative IC50, 72 h treatment, CCK-8, BaF3 WT
BaF3(T315I) = BaF3(T315I) (Homo sapiens, UniProt P00519, T315I, cells depend on it); assay: WST (CCK-8) anti-proliferation assay, BaF3 T315I cells; conditions: read-out: BaF3(T315I); anti-proliferative IC50, 72 h treatment, CCK-8, BaF3 T315I

SMILES: CC(=O)N1CC(C)(C)c2c(-c3ccn[nH]3)cc(C(=O)Nc3ccc(OC(F)(F)Cl)cc3)cc21 [III-4, 1-acetyl-N-(4-(chlorodifluoromethoxy)phenyl)-3,3-dimethyl-4-(1H-pyrazol-5-yl)indoline-6-carboxamide]
GI50 (BaF3(WT)): 22 nM | GI50 (BaF3(T315I)): 176 nM

SMILES: O=C(Nc1ccc(OC(F)(F)Cl)cc1)c1cc2c(c(-c3cc[nH]n3)c1)C1(CCC(O)C1)C(=O)N2 (stereo not shown) [V-5, N-(4-(chlorodifluoromethoxy)phenyl)-3-hydroxy-2′-oxo-4′-(1H-pyrazol-5-yl)spiro[cyclopentane-1,3′-indoline]-6′-carboxamide]
GI50 (BaF3(WT)): 144 nM | GI50 (BaF3(T315I)): 335 nM

SMILES: CC1(C)C(=O)N(CCO)c2cc(C(=O)Nc3ccc(OC(F)(F)Cl)cc3)cc(-c3ccn[nH]3)c21 [V-6, N-(4-(chlorodifluoromethoxy)phenyl)-1-(2-hydroxyethyl)-3,3-dimethyl-2-oxo-4-(1H-pyrazol-5-yl)indoline-6-carboxamide]
GI50 (BaF3(WT)): 364 nM | GI50 (BaF3(T315I)): 2860 nM

SMILES: CC1(C)c2c(cc(C(=O)Nc3ccc(OC(F)(F)Cl)cc3)cc2-c2ccn[nH]2)C(=O)N1CCN1CC[C@@H](O)C1 [IV-8, (R)—N-(4-(chlorodifluoromethoxy)phenyl)-2-(2-(3-hydroxypyrrolidin-1-yl)ethyl)-1,1-dimethyl-3-oxo-7-(1H-pyrazol-5-yl)isoindoline-5-carboxamide]
GI50 (BaF3(WT)): 100 nM | GI50 (BaF3(T315I)): 6020 nM

SMILES: CC(C)N1CCOc2cc(C(=O)Nc3ccc(OC(F)(F)Cl)cc3)cc(-c3ccn[nH]3)c21 [IX-3, N-(4-(chlorodifluoromethoxy)phenyl)-4-isopropyl-5-(1H-pyrazol-5-yl)-3,4-dihydro-2H-benzo[b][1,4] oxazine-7-carboxamide]
GI50 (BaF3(WT)): 80 nM | GI50 (BaF3(T315I)): 535 nM

SMILES: Cc1ccc(-c2cc(C(=O)Nc3ccc(OC(F)(F)Cl)cc3)cc3c2C(C)(C)N(C)C3=O)s1 [IV-3, N-(4-(chlorodifluoromethoxy)phenyl)-1,1,2-trimethyl-7-(5-methylthiophen-2-yl)-3-oxoisoindoline-5-carboxamide]
GI50 (BaF3(WT)): 132 nM | GI50 (BaF3(T315I)): 2380 nM

SMILES: O=C(Nc1ccc(OC(F)(F)Cl)cc1)c1cc2c(c(-c3ccn[nH]3)c1)C1(CC=CC1)C(=O)N2 [V-4, N-(4-(chlorodifluoromethoxy)phenyl)-2′-oxo-4′-(1H-pyrazol-5-yl)spiro[cyclopentane-1,3′-indolin]-3-ene-6′-carboxamide]
GI50 (BaF3(WT)): 43 nM | GI50 (BaF3(T315I)): 292 nM

SMILES: CC1(C)CN(S(C)(=O)=O)c2cc(C(=O)Nc3ccc(OC(F)(F)Cl)cc3)cc(-c3ccn[nH]3)c21 [III-5, N-(4-(chlorodifluoromethoxy)phenyl)-3,3-dimethyl-1-(methylsulfonyl)-4-(1H-pyrazol-5-yl)indoline-6-carboxamide]
GI50 (BaF3(WT)): 61 nM | GI50 (BaF3(T315I)): 418 nM

SMILES: CN1CCCc2cc(C(=O)Nc3ccc(OC(F)(F)Cl)cc3)cc(-c3ccn[nH]3)c21 [IX-2, N-(4-(chlorodifluoromethoxy)phenyl)-1-methyl-8-(1H-pyrazol-5-yl)-1,2,3,4-tetrahydroquinoline-6-carboxamide]
GI50 (BaF3(WT)): 162 nM | GI50 (BaF3(T315I)): 332 nM

The remaining lines, values ahead:

GI50 (BaF3(WT)): 103 nM | GI50 (BaF3(T315I)): 3180 nM
SMILES: Cc1cn(C(C)C)c2c(-c3cncnc3)cc(C(=O)Nc3ccc(OC(F)(F)Cl)cc3)cc12 [XII-5, N-(4-(chlorodifluoromethoxy)phenyl)-1-isopropyl-3-methyl-7-(pyrimidin-5-yl)-1H-indole-5-carboxamide]

GI50 (BaF3(WT)): 113 nM | GI50 (BaF3(T315I)): 940 nM
SMILES: CC(C)N1c2c(cc(C(=O)Nc3ccc(OC(F)(F)Cl)cc3)cc2-c2ccn[nH]2)CC1C(=O)N1CC[C@@H](O)C1 (stereo partly drawn) [VII-29, N-(4-(chlorodifluoromethoxy)phenyl)-2-((R)-3-hydroxypyrrolidine-1-carbonyl)-1-isopropyl-7-(1H-pyrazol-5-yl)indoline-5-carboxamide]

GI50 (BaF3(WT)): 22 nM | GI50 (BaF3(T315I)): 511 nM
SMILES: Cc1cn(C(C)C)c2c(-c3ccn[nH]3)cc(C(=O)Nc3ccc(OC(F)(F)Cl)cc3)cc12 [XII-6, N-(4-(chlorodifluoromethoxy)phenyl)-1-isopropyl-3-methyl-7-(1H-pyrazol-5-yl)-1H-indole-5-carboxamide]

GI50 (BaF3(WT)): 62 nM | GI50 (BaF3(T315I)): 1050 nM
SMILES: CC1CN(C)c2c(-c3ccn[nH]3)cc(C(=O)Nc3ccc(OC(F)(F)Cl)cc3)cc21 (stereo not shown) [VII-39, N-(4-(chlorodifluoromethoxy)phenyl)-1,3-dimethyl-7-(1H-pyrazol-5-yl)indoline-5-carboxamide]

GI50 (BaF3(WT)): 85 nM | GI50 (BaF3(T315I)): 366 nM
SMILES: CC(C)N1CC(CN(C)C)c2cc(C(=O)Nc3ccc(OC(F)(F)Cl)cc3)cc(-c3ccn[nH]3)c21 (stereo not shown) [VII-27, N-(4-(chlorodifluoromethoxy)phenyl)-3-((dimethylamino)methyl)-1-isopropyl-7-(1H-pyrazol-5-yl)indoline-5-carboxamide]

GI50 (BaF3(WT)): 231 nM | GI50 (BaF3(T315I)): 1740 nM
SMILES: CC(C)N1c2c(cc(C(=O)Nc3ccc(OC(F)(F)Cl)cc3)cc2-c2ccn[nH]2)CC1CC(=O)N(C)C (stereo not shown) [VII-36, N-(4-(chlorodifluoromethoxy)phenyl)-2-(2-(dimethylamino)-2-oxoethyl)-1-isopropyl-7-(1H-pyrazol-5-yl)indoline-5-carboxamide]

GI50 (BaF3(WT)): 57 nM | GI50 (BaF3(T315I)): 344 nM
SMILES: CC(C)n1cc(CO)c2cc(C(=O)Nc3ccc(OC(F)(F)Cl)cc3)cc(-c3ccn[nH]3)c21 [XII-8, N-(4-(chlorodifluoromethoxy)phenyl)-3-(hydroxymethyl)-1-isopropyl-7-(1H-pyrazol-5-yl)-1H-indole-5-carboxamide]

GI50 (BaF3(WT)): 308 nM | GI50 (BaF3(T315I)): 2160 nM
SMILES: CC(C)N1c2c(cc(C(=O)Nc3ccc(OC(F)(F)Cl)cc3)cc2-c2ccn[nH]2)CC1C(=O)NCCN(C)C (stereo not shown) [VII-32, N5-(4-(chlorodifluoromethoxy)phenyl)-N2-(2-(dimethylamino)ethyl)-1-isopropyl-7-(1H-pyrazol-5-yl)indoline-2,5-dicarboxamide]

GI50 (BaF3(WT)): 16 nM | GI50 (BaF3(T315I)): 332 nM
SMILES: CC(C)N1CC(CO)c2cc(C(=O)Nc3ccc(OC(F)(F)Cl)cc3)cc(-c3ccn[nH]3)c21 (stereo not shown) [VII-43, N-(4-(chlorodifluoromethoxy)phenyl)-3-(hydroxymethyl)-1-isopropyl-7-(1H-pyrazol-5-yl)indoline-5-carboxamide]

GI50 (BaF3(WT)): 78 nM | GI50 (BaF3(T315I)): 423 nM
SMILES: CC(C)N1c2c(cc(C(=O)Nc3ccc(OC(F)(F)Cl)cc3)cc2-c2ccn[nH]2)CC1C(=O)N1CCS(=O)(=O)CC1 (stereo not shown) [VII-31, N-(4-(chlorodifluoromethoxy)phenyl)-2-(1,1-dioxidothiomorpholine-4-carbonyl)-1-isopropyl-7-(1H-pyrazol-5-yl)indoline-5-carboxamide]

GI50 (BaF3(WT)): 505 nM | GI50 (BaF3(T315I)): 3270 nM
SMILES: CC(C)n1cc(Cl)c2cc(C(=O)Nc3ccc(OC(F)(F)Cl)cc3)cc(-c3ccn[nH]3)c21 [XII-3, 3-chloro-N-(4-(chlorodifluoromethoxy)phenyl)-1-isopropyl-7-(1H-pyrazol-5-yl)-1H-indole-5-carboxamide]

GI50 (BaF3(WT)): 29 nM | GI50 (BaF3(T315I)): 946 nM
SMILES: O=C(Nc1ccc(OC(F)(F)Cl)cc1)c1cc2c(c(-c3ccn[nH]3)c1)N(C1CC(CCl)C1)CC2 (stereo not shown) [VII-11, N-(4-(chlorodifluoromethoxy)phenyl)-1-(3-(chloromethyl)cyclobutyl)-7-(1H-pyrazol-3-yl)indoline-5-carboxamide]

GI50 (BaF3(WT)): 133 nM | GI50 (BaF3(T315I)): 1090 nM
SMILES: CC1c2cc(C(=O)Nc3ccc(OC(F)(F)Cl)cc3)cc(-c3ccn[nH]3)c2N(C(C)C)C1CO (stereo not shown) [VII-19, N-(4-(chlorodifluoromethoxy)phenyl)-2-(hydroxymethyl)-1-isopropyl-3-methyl-7-(1H-pyrazol-5-yl)indoline-5-carboxamide]

GI50 (BaF3(WT)): 458 nM | GI50 (BaF3(T315I)): 3680 nM
SMILES: CN1C(=O)C(C)(C)c2cc(C(=O)Nc3ccc(OC(F)(F)Cl)cc3)cc(-c3ccn[nH]3)c21 [VIII-1, N-(4-(chlorodifluoromethoxy)phenyl)-1,3,3-trimethyl-2-oxo-7-(1H-pyrazol-5-yl)indoline-5-carboxamide]

GI50 (BaF3(WT)): 58 nM | GI50 (BaF3(T315I)): 243 nM
SMILES: CC(C)N1c2c(cc(C(=O)Nc3ccc(OC(F)(F)Cl)cc3)cc2-c2ccn[nH]2)CC1C(=O)N1CCOCC1 (stereo not shown) [VII-25, N-(4-(chlorodifluoromethoxy)phenyl)-1-isopropyl-2-(morpholine-4-carbonyl)-7-(1H-pyrazol-5-yl)indoline-5-carboxamide]

GI50 (BaF3(WT)): 313 nM | GI50 (BaF3(T315I)): 1010 nM
SMILES: CC(C)N1C(=O)C(C)(C)c2cc(C(=O)Nc3ccc(OC(F)(F)Cl)cc3)cc(-c3ccn[nH]3)c21 [VIII-3, N-(4-(chlorodifluoromethoxy)phenyl)-1-isopropyl-3,3-dimethyl-2-oxo-7-(1H-pyrazol-5-yl)indoline-5-carboxamide]

GI50 (BaF3(WT)): 20 nM | GI50 (BaF3(T315I)): 223 nM
SMILES: CC1CN(C(C)C)c2c(-c3ccn[nH]3)cc(C(=O)Nc3ccc(OC(F)(F)Cl)cc3)cc21 (stereo not shown) [VII-38, N-(4-(chlorodifluoromethoxy)phenyl)-1-isopropyl-3-methyl-7-(1H-pyrazol-5-yl)indoline-5-carboxamide]

GI50 (BaF3(WT)): 46 nM | GI50 (BaF3(T315I)): 168 nM
SMILES: CC(C)N1CC(C)(CO)c2cc(C(=O)Nc3ccc(OC(F)(F)Cl)cc3)cc(-c3ccn[nH]3)c21 (stereo not shown) [VII-41, N-(4-(chlorodifluoromethoxy)phenyl)-3-(hydroxymethyl)-1-isopropyl-3-methyl-7-(1H-pyrazol-5-yl)indoline-5-carboxamide]

GI50 (BaF3(WT)): 23 nM | GI50 (BaF3(T315I)): 468 nM
SMILES: O=C(Nc1ccc(OC(F)(F)Cl)cc1)c1cc2c(c(-c3ccn[nH]3)c1)N(C1CCC1)CC2 [VII-8, N-(4-(chlorodifluoromethoxy)phenyl)-1-cyclobutyl-7-(1H-pyrazol-5-yl) indoline-5-carboxamide]

GI50 (BaF3(WT)): 145 nM | GI50 (BaF3(T315I)): 1350 nM
SMILES: CC(C)N1c2c(cc(C(=O)Nc3ccc(OC(F)(F)Cl)cc3)cc2-c2cncnc2)CC1C(=O)NCCS(C)(=O)=O (stereo not shown) [VII-22, N5-(4-(chlorodifluoromethoxy)phenyl)-1-isopropyl-N2-(2-(methylsulfonyl)ethyl)-7-(pyrimidin-5-yl)indoline-2,5-dicarboxamide]
